Legend:
[1] = molecular target: T1, Nitric oxide synthase, inducible (Mus musculus, UniProt P29477)
T1 sequence (P29477 whole entry): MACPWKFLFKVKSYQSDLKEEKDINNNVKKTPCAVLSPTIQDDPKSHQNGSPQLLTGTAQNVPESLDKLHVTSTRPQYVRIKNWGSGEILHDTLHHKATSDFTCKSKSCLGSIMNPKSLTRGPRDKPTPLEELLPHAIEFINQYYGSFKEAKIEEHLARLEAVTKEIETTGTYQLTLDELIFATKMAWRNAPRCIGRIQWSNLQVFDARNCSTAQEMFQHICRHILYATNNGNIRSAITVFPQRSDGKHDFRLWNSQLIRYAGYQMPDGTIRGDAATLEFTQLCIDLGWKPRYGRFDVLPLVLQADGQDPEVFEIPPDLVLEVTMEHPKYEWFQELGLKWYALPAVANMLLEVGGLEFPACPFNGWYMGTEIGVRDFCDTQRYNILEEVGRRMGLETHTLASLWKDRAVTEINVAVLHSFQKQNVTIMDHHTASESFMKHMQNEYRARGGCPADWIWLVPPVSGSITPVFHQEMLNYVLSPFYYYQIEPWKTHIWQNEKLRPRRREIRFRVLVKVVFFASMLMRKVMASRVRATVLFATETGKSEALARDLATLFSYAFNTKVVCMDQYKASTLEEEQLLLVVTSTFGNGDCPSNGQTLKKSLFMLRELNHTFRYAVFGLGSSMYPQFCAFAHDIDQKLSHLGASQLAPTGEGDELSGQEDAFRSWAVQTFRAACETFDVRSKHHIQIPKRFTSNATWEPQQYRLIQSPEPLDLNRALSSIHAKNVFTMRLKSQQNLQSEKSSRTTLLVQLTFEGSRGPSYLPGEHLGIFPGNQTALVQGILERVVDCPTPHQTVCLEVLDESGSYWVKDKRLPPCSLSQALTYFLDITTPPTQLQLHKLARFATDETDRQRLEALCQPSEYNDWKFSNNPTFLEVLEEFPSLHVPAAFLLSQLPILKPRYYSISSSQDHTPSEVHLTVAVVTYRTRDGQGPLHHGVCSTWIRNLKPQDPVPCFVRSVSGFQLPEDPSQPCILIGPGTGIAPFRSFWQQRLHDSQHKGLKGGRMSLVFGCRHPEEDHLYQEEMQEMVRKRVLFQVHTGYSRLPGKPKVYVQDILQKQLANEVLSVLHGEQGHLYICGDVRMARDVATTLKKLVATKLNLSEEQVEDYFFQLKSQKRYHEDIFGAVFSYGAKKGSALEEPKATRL
Description: Inhibition of mouse recombinant iNOS expressed in Escherichia coli assessed as nitric oxide formation by hemoglobin capture assay

Nitric oxide synthase 1 = Nitric oxide synthase 1 (Rattus norvegicus, UniProt P29476)
Sequence of Nitric oxide synthase 1 (P29476 whole entry): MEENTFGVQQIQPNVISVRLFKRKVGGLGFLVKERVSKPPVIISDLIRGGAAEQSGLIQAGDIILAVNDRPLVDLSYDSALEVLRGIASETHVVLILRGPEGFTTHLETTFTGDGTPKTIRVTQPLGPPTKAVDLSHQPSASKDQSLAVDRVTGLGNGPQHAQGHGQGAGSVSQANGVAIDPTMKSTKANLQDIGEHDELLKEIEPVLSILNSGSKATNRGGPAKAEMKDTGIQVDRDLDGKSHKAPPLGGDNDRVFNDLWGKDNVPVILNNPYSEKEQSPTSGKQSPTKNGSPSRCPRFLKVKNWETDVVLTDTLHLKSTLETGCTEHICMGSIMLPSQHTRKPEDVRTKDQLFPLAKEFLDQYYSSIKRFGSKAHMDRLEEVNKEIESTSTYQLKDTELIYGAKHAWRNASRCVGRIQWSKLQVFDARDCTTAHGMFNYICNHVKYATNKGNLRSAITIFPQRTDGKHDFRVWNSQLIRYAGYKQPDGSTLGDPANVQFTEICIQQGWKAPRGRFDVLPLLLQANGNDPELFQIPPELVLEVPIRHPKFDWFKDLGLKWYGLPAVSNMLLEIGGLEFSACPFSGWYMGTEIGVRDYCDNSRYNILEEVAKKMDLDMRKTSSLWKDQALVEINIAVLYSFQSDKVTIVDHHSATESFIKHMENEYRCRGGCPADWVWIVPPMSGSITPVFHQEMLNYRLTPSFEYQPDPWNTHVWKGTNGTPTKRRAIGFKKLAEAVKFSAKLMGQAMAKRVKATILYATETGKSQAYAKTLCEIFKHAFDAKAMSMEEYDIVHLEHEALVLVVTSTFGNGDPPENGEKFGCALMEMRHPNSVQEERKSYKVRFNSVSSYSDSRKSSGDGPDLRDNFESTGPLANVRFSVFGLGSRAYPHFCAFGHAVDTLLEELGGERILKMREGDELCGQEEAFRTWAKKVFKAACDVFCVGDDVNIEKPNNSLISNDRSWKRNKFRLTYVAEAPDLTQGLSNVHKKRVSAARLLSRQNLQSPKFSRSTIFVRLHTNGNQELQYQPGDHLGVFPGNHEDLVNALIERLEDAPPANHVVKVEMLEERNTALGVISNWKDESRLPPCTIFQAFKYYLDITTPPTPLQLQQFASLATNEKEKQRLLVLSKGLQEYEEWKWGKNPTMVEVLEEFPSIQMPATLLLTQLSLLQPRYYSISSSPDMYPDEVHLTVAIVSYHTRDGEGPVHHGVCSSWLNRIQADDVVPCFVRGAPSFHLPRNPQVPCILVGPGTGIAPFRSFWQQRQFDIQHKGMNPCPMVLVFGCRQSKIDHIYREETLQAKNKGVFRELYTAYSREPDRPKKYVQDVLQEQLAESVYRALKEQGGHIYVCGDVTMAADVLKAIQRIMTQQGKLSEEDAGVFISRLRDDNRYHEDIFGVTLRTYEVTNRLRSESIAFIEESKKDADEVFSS
Description: Inhibition of rat recombinant nNOS expressed in Escherichia coli assessed as nitric oxide formation by hemoglobin capture assay

Nitric oxide synthase 3 = molecular target: T2, Nitric oxide synthase 3 (Bos taurus, UniProt P29473)
T2 sequence (P29473 whole entry): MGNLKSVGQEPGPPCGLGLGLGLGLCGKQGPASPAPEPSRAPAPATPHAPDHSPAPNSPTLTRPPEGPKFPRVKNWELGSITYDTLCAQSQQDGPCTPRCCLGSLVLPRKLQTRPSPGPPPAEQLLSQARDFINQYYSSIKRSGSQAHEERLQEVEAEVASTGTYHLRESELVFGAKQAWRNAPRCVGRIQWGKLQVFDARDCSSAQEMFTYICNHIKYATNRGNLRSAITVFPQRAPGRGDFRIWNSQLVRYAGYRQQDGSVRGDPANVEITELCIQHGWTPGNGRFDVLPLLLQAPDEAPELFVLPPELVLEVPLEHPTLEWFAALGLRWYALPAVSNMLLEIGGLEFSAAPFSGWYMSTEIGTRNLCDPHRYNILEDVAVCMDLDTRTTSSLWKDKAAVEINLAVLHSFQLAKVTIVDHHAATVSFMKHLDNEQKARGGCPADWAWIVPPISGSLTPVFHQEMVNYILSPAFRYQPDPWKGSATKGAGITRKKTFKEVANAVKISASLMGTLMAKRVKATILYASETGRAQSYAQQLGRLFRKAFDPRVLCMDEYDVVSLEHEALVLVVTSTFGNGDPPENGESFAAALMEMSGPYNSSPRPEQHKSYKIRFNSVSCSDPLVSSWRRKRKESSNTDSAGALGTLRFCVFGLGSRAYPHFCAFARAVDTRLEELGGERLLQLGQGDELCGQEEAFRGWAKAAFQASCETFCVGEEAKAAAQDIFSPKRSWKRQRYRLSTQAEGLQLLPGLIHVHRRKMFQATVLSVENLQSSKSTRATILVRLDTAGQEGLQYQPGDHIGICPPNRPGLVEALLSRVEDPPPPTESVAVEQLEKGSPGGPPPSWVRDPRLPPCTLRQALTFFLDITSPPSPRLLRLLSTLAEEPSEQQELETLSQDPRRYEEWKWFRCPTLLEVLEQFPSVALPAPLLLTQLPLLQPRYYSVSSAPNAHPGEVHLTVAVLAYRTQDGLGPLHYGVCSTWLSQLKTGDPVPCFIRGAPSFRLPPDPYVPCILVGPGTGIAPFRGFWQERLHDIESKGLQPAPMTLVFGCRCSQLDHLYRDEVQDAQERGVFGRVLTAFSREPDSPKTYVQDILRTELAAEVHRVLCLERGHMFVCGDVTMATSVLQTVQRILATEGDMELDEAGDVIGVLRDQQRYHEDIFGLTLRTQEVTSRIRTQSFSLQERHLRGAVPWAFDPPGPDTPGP
Description: Inhibition of bovine recombinant eNOS expressed in Escherichia coli assessed as nitric oxide formation by hemoglobin capture assay

| Ki [1] [µM] | Ki (Nitric oxide synthase 1) [µM] | Ki (Nitric oxide synthase 3) [µM] | Structure (SMILES) |
| --- | --- | --- | --- |
| 4 | 0.4 | 33 | Cc1cc(N)nc(C[C@H]2CNC[C@H]2NCCOCCc2cccc(F)c2)c1 (racemic) |
|  |  | 145 | Cc1cc(N)nc(C[C@H]2CNC[C@H]2OCC(=O)NCCc2cccc(F)c2)c1 (racemic) |
|  | 0.053 |  | Cc1cc(N)nc(C[C@H]2CNC[C@H]2NC(=O)CNCCc2cccc(F)c2)c1 (racemic) |
|  | 5 | 107 | Cc1cc(N)nc(C[C@H]2CNC[C@H]2OCCNC(=O)Cc2cccc(F)c2)c1 (racemic) |

From ChEMBL document CHEMBL1153945 (Bioorg Med Chem, 2009)
